Measurements reported in the supplement of paper PMC6045584.
± gives the standard deviation of the averaged measurements.

Compound: C[C@]1(O)C[C@@H](c2nc(-c3ccc4ccc(-c5ccccc5)nc4c3)c3c(N)nccn32)C1 [OSI-906]
Assay: surviving fraction relative to DMSO-only wells; higher = less growth inhibition
Conditions: 0.5 nM; exposure time: 5 days
Method in brief: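 Inhibitors were tested at 0.5, 1, 5, 10, 50, 100, 500 and 1000 nM, applied continuously for five days beginning 24 hours after log-phase tumour cells were seeded at 250–500 per well in 384-well plates. CellTiter-Glo luminescence served as the viability measure, expressed as surviving fraction against the median of DMSO-only wells. Each line, screened three times, was kept only with replicate Pearson r >0.7 and median Z' >0.3.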

Row | Test System | surviving fraction
1 | JURKAT HAEMATOPOIETIC AND LYMPHOID TISSUE | 0.966 ± 0.033
2 | SJSA1 BONE | 1.23 ± 0.051
3 | YAMATO SYNOVIAL | 0.866 ± 0.13
4 | C33A CERVIX | 0.981 ± 0.054
5 | PCI30 HEADNECK | 0.89 ± 0.027
6 | SCC003 HEADNECK | 0.796 ± 0.018
7 | HUO3N1 BONE | 0.938 ± 0.09
8 | T47D BREAST | 0.9222 ± 0.0086
9 | NOS1 BONE | 0.916 ± 0.13
10 | HELA CERVIX | 0.971 ± 0.033
11 | NY BONE | 0.9347 ± 0.009
12 | CASKI CERVIX | 0.826 ± 0.028
13 | BT549 BREAST | 0.867 ± 0.08
14 | COLO320DM LARGE INTESTINE | 1.03 ± 0.099
15 | MDAMB361 BREAST | 0.669 ± 0.025
16 | HOSMNG BONE | 0.94 ± 0.099
17 | A549 LUNG | 0.932 ± 0.016
18 | CAL51 BREAST | 0.958 ± 0.023
19 | OSHN BONE | 0.887 ± 0.024
20 | MCF7 BREAST | 0.832 ± 0.042
21 | HT1080 SOFT TISSUE | 1 ± 0.042

Row | Test System | surviving fraction
22 | MDAMB157 BREAST | 0.892 ± 0.048
23 | 143B BONE | 1.02 ± 0.048
24 | SIHA CERVIX | 0.931 ± 0.067
25 | MDAMB134 BREAST | 0.667 ± 0.12
26 | SG32 HEADNECK | 0.714 ± 0.15
27 | NCIH441 LUNG | 0.976 ± 0.058
28 | CCK81 LARGE INTESTINE | 0.782 ± 0.2
29 | SG31 HEADNECK | 0.867 ± 0.15
30 | OS25HAL BONE | 0.866 ± 0.066
31 | HCC1954 BREAST | 0.33 ± 0.0085
32 | VP229 BREAST | 0.856 ± 0.095
33 | 22RV1 PROSTATE | 0.9557 ± 0.009
34 | MDAMB231 BREAST | 0.917 ± 0.034
35 | RDES SOFT TISSUE | 0.836 ± 0.081
36 | LM7 BONE | 0.743 ± 0.037
37 | HMT3552 BREAST | 0.916 ± 0.058
38 | SNU475 LIVER | 0.89 ± 0.023
39 | HCC38 BREAST | 0.958 ± 0.13
40 | HU09 BONE | 0.79 ± 0.071
41 | ASKA SYNOVIAL | 0.934 ± 0.059

Same assay, conditions: 1 nM; exposure time: 5 days

Row | Test System | surviving fraction
42 | JURKAT HAEMATOPOIETIC AND LYMPHOID TISSUE | 0.971 ± 0.013
43 | SJSA1 BONE | 1.22 ± 0.075
44 | YAMATO SYNOVIAL | 0.936 ± 0.04
45 | C33A CERVIX | 0.945 ± 0.052
46 | PCI30 HEADNECK | 0.947 ± 0.022
47 | SCC003 HEADNECK | 0.865 ± 0.028
48 | HUO3N1 BONE | 0.933 ± 0.068
49 | T47D BREAST | 0.933 ± 0.038
50 | NOS1 BONE | 0.944 ± 0.062
51 | HELA CERVIX | 0.981 ± 0.054
52 | NY BONE | 0.9183 ± 0.0031
53 | CASKI CERVIX | 0.849 ± 0.029
54 | BT549 BREAST | 0.792 ± 0.027
55 | COLO320DM LARGE INTESTINE | 1.09 ± 0.065
56 | MDAMB361 BREAST | 0.682 ± 0.024
57 | HOSMNG BONE | 0.941 ± 0.076
58 | A549 LUNG | 0.943 ± 0.028
59 | CAL51 BREAST | 0.924 ± 0.018
60 | OSHN BONE | 0.912 ± 0.026
61 | MCF7 BREAST | 0.85 ± 0.044
62 | HT1080 SOFT TISSUE | 1.02 ± 0.023

Row | Test System | surviving fraction
63 | MDAMB157 BREAST | 0.875 ± 0.11
64 | 143B BONE | 0.972 ± 0.028
65 | SIHA CERVIX | 0.888 ± 0.012
66 | MDAMB134 BREAST | 0.797 ± 0.014
67 | SG32 HEADNECK | 0.689 ± 0.0095
68 | NCIH441 LUNG | 1 ± 0.033
69 | CCK81 LARGE INTESTINE | 0.815 ± 0.089
70 | SG31 HEADNECK | 0.994 ± 0.057
71 | OS25HAL BONE | 0.892 ± 0.017
72 | HCC1954 BREAST | 0.37 ± 0.012
73 | VP229 BREAST | 0.825 ± 0.078
74 | 22RV1 PROSTATE | 1 ± 0.097
75 | MDAMB231 BREAST | 0.9167 ± 0.0045
76 | RDES SOFT TISSUE | 0.818 ± 0.12
77 | LM7 BONE | 0.717 ± 0.062
78 | HMT3552 BREAST | 0.942 ± 0.017
79 | SNU475 LIVER | 0.887 ± 0.037
80 | HCC38 BREAST | 0.883 ± 0.083
81 | HU09 BONE | 0.852 ± 0.082
82 | ASKA SYNOVIAL | 0.99 ± 0.057

Same assay, conditions: 5 nM; exposure time: 5 days

Row | Test System | surviving fraction
83 | JURKAT HAEMATOPOIETIC AND LYMPHOID TISSUE | 0.998 ± 0.032
84 | SJSA1 BONE | 1.17 ± 0.2
85 | YAMATO SYNOVIAL | 0.995 ± 0.069
86 | C33A CERVIX | 1.08 ± 0.011
87 | PCI30 HEADNECK | 0.955 ± 0.076
88 | SCC003 HEADNECK | 0.88 ± 0.099
89 | HUO3N1 BONE | 0.948 ± 0.082
90 | T47D BREAST | 0.9888 ± 0.0092
91 | NOS1 BONE | 1.16 ± 0.49
92 | HELA CERVIX | 0.955 ± 0.069
93 | NY BONE | 1.027 ± 0.01
94 | CASKI CERVIX | 0.814 ± 0.049
95 | BT549 BREAST | 0.836 ± 0.048
96 | COLO320DM LARGE INTESTINE | 1.09 ± 0.023
97 | MDAMB361 BREAST | 0.721 ± 0.04
98 | HOSMNG BONE | 0.948 ± 0.06
99 | A549 LUNG | 0.948 ± 0.0087
100 | CAL51 BREAST | 0.9553 ± 0.0093
101 | OSHN BONE | 0.902 ± 0.028
102 | MCF7 BREAST | 0.816 ± 0.022
103 | HT1080 SOFT TISSUE | 1.02 ± 0.021

Row | Test System | surviving fraction
104 | MDAMB157 BREAST | 0.949 ± 0.058
105 | 143B BONE | 1.07 ± 0.071
106 | SIHA CERVIX | 0.992 ± 0.11
107 | MDAMB134 BREAST | 0.679 ± 0.039
108 | SG32 HEADNECK | 0.767 ± 0.13
109 | NCIH441 LUNG | 0.993 ± 0.07
110 | CCK81 LARGE INTESTINE | 0.87 ± 0.051
111 | SG31 HEADNECK | 0.84 ± 0.045
112 | OS25HAL BONE | 0.894 ± 0.025
113 | HCC1954 BREAST | 0.384 ± 0.046
114 | VP229 BREAST | 0.874 ± 0.039
115 | 22RV1 PROSTATE | 0.934 ± 0.11
116 | MDAMB231 BREAST | 0.937 ± 0.021
117 | RDES SOFT TISSUE | 0.77 ± 0.14
118 | LM7 BONE | 0.801 ± 0.074
119 | HMT3552 BREAST | 0.988 ± 0.057
120 | SNU475 LIVER | 0.887 ± 0.012
121 | HCC38 BREAST | 1.06 ± 0.09
122 | HU09 BONE | 0.956 ± 0.067
123 | ASKA SYNOVIAL | 1.01 ± 0.011

Same assay, conditions: 10 nM; exposure time: 5 days

Row | Test System | surviving fraction
124 | JURKAT HAEMATOPOIETIC AND LYMPHOID TISSUE | 0.9753 ± 0.009
125 | SJSA1 BONE | 1.21 ± 0.11
126 | YAMATO SYNOVIAL | 0.986 ± 0.082
127 | C33A CERVIX | 1.1 ± 0.053
128 | PCI30 HEADNECK | 1.05 ± 0.074
129 | SCC003 HEADNECK | 0.87 ± 0.011
130 | HUO3N1 BONE | 0.92 ± 0.053
131 | T47D BREAST | 0.917 ± 0.02
132 | NOS1 BONE | 1 ± 0.15
133 | HELA CERVIX | 0.88 ± 0.09
134 | NY BONE | 0.96 ± 0.011
135 | CASKI CERVIX | 0.798 ± 0.038
136 | BT549 BREAST | 0.88 ± 0.13
137 | COLO320DM LARGE INTESTINE | 1.01 ± 0.049
138 | MDAMB361 BREAST | 0.741 ± 0.061
139 | HOSMNG BONE | 0.98 ± 0.062
140 | A549 LUNG | 0.931 ± 0.013
141 | CAL51 BREAST | 0.94 ± 0.087
142 | OSHN BONE | 0.884 ± 0.046
143 | MCF7 BREAST | 0.825 ± 0.056

Row | Test System | surviving fraction
144 | HT1080 SOFT TISSUE | 1 ± 0.017
145 | MDAMB157 BREAST | 0.946 ± 0.079
146 | 143B BONE | 1.04 ± 0.05
147 | SIHA CERVIX | 0.886 ± 0.056
148 | MDAMB134 BREAST | 0.627 ± 0.037
149 | SG32 HEADNECK | 0.632 ± 0.057
150 | NCIH441 LUNG | 0.969 ± 0.03
151 | CCK81 LARGE INTESTINE | 0.784 ± 0.036
152 | SG31 HEADNECK | 0.985 ± 0.056
153 | OS25HAL BONE | 0.871 ± 0.017
154 | HCC1954 BREAST | 0.475 ± 0.025
155 | VP229 BREAST | 0.9 ± 0.038
156 | 22RV1 PROSTATE | 1.01 ± 0.18
157 | MDAMB231 BREAST | 0.918 ± 0.03
158 | RDES SOFT TISSUE | 0.733 ± 0.18
159 | LM7 BONE | 0.747 ± 0.041
160 | HMT3552 BREAST | 0.937 ± 0.064
161 | SNU475 LIVER | 0.869 ± 0.054
162 | HCC38 BREAST | 0.902 ± 0.12
163 | HU09 BONE | 0.909 ± 0.043
